Measurements reported in patent US7045495B2 (Sloan-Kettering Institute for Cancer Research, priority 1996, dated 2006).

Columns and labels:
SK-GT-1 = experiment: clonogenic assay, resistance relative to MKN-74; format: cell-based, human; details: clonogenic survival ratio, 10 μg/ml CDDP, 5 μg/ml MMC, 50 FM 5-FU
Source text: (§1) The basis of drug resistance in these disease has not been well defined. […] For gastric cancer applicants have been successful in establishing five long-term cell lines, SK-GT-1, SK-GT-2, SK-GT-4, SK-GT-5, and SK-GT-6 for Sloan Kettering Gastric Tumor (12,13) none of which express P-glycoprotein (14). Yet, all these tumors are resistant to chemotherapy and to the induction of apoptosis. Applicants have reported that the relative sensitivity of these gastric cancer cells to chemotherapy is influenced by their p53 status (14).

SK-GT-2 = experiment: clonogenic assay, resistance relative to MKN-74; format: cell-based, human; details: 10 μg/ml CDDP, 5 μg/ml MMC, 50 FM 5-FU
Source text: as §1

MKN-74 [1] = experiment: clonogenic assay, resistance relative to MKN-74; format: cell-based, human; details: MKN-74 (reference); 10 μg/ml CDDP, 5 μg/ml MMC, 50 FM 5-FU
Source text: as §1

SK-GT-5 = experiment: clonogenic assay, resistance relative to MKN-74; format: cell-based, human; details: 10 μg/ml CDDP, 5 μg/ml MMC, 50 FM 5-FU
Source text: as §1

NU-GC-4 = experiment: clonogenic assay, resistance relative to MKN-74; format: cell-based, human; details: 10 μg/ml CDDP, 5 μg/ml MMC
Source text: as §1

16C mammary carcinoma = details: cisplatin 10 mg/kg i.v.; safingol 20 mg/kg i.p.; cited from earlier work
MKN-74 [2] = experiment: cell viability, trypan blue dye exclusion; format: cell-based, human; details: 24 hours, single drug or concomitant; bryostatin 1 μM, Mitomycin-C 1 μg/ml, Taxol 50 μM, Cisplatin 50 μM
Source text: Recently our laboratory has studied the effects of combining bryostatin with chemotherapy both in vitro and in vivo against solid tumors. For our in vitro studies, we have been using the human gastric cancer cell line MKN-74. Cytotoxicity has been examined both by cell viability assays using trypan blue dye exclusion assays and by the induction of apoptosis using quantitative fluorescent microscopy.

SMILES | Fold-Increase in Resistance Relative to MKN-74 (p53wt) (SK-GT-1) | Fold-Increase in Resistance Relative to MKN-74 (p53wt) (SK-GT-2) | Fold-Increase in Resistance Relative to MKN-74 (p53wt) (MKN-74 [1]) | Fold-Increase in Resistance Relative to MKN-74 (p53wt) (SK-GT-5) | Fold-Increase in Resistance Relative to MKN-74 (p53wt) (NU-GC-4) | time for tumor to reach 5 times its starting size (16C mammary carcinoma) | % of Cells Alive (MKN-74 [2])
O=c1[nH]cc(F)c(=O)[nH]1 [5-FU, 5-Fluorouracil] | 11X | 12X | 1X | 6X | 0.6X | – | –
N.N.[Cl][Pt][Cl] [cisplatin, Cisplatin] | 21X | 11X | 1X | 12X | 2X | 10 days | 60%
